Assay results from US11390661B2, “HCMV entry inhibitors” (priority 2016, dated 2022).

Legend:
[1] = tested on: HCMV TB40E; experiment: Post adsorption inhibition on HFFs with or without PEG fusion; format: cell-based, Human cytomegalovirus
Experimental: For the analysis of post adsorption inhibition, HFFs were seeded at a density of 40,000 per well on IBIDI plates and incubated for 1 day before infection. Infectious supernatants of TB40E which were produced within 24 hours were cleared by centrifugation. Two identical plates were treated as follows: Cells and virus dilutions were precooled on ice for 15 min before attachment of the virus was allowed on ice for 1 h. The virus containing medium was exchanged by pre-cooled MEM with or without 200 ng/ml PDGFR-alpha-Fc. After 2 h incubation of the inhibitor with the cells on ice, one plate was directly shifted to 37° C., whereas the other cells were treated with pre-warmed 50% PEG (Roche) for 30 sec. The PEG was washed off by five times washing with pre-warmed PBS. Supplied with pre-warmed MEM containing again 200 ng/ml PDGFR-alpha-Fc, the cells were then incubated at 37° C. After 2 h incubation the medium was exchanged on PEG-treated and untreated cells and infection was allowed to proceed for 24 h before infection efficiencies were assessed by immediate early staining. Efficient PEG fusion was controlled visually by detection of syncytia.
HCMV virus particles were adsorbed to HFFs for 1 h on ice. The virus containing medium was then exchanged by medium containing PDGFR-alpha-Fc at a concentration of 200 ng/ml. […]

[2] = tested on: UL74stop virus; experiment: Inhibition assay with UL74stop virus; format: cell-based, Human cytomegalovirus
Experimental: To further investigate this, inhibition assays were performed with the UL74stop virus (FIG. 8B). As deletion of pUL74 from the virus has a severe effect on infectivity, virions had to be 50 fold concentrated for the experiment, whereas wild type virus had to be diluted to achieve similar infection rates.
FIG. 8: pUL74 is the viral interaction partner of PDGFR-alpha-Fc. Virus preparations of strain TB40-BAC4 or TB40-BAC4UL74stop were pretreated for 2 h with PDGFR-alpha-Fc. A: HFFs were fixed after 90 min of incubation with the virus-inhibitor mixture followed by staining for the viral structural protein pUL32 (red) and for Fc (green). B: Wild type or pUL74stop virus preparations were pre-incubated for 2 h with PDGFR-alpha-Fc before infection of HFFs or HECs was allowed. Wild type or UL74stop virus preparations were diluted or concentrated respectively to obtain similar infection rates. Infection rates were determined by calculation of the number of immediate early positive nuclei over total DAPI stained nuclei per image. Out of three independent experiments one is shown.

[3] = target: HCMV particles; experiment: Binding of chimeric receptors (Fc-fusion proteins) to HCMV particles; design: species or system Human cytomegalovirus
Experimental: To assess the binding of Fc-Proteins to virus particles, HFFs were seeded at a density of 40,000 cells per well on IBIDI plates 1 day prior to infection. Virus preparations were pre-incubated with Fc-fusion proteins at a final concentration of 500 ng/ml for 2 h at 37° C. The virus/Fc-protein mixtures were incubated with the cells for 1.5 h on ice. Before fixation with 80% acetone, the cells were washed once with MEM. For staining of viral particles mouse hybridoma recognizing the abundant viral protein pp150 (generously provided by W. Britt, Sanchez 2000) used.
The inventors tested this by staining of adsorbed virus particles with the Fc-fusion proteins. […] Virus particles were stained for the capsid protein pp150 and bound Fc-fusion proteins.
The inventors analyzed the mode of inhibition by PDGFR-alpha-Fc. For this, the binding of different concentrations of the fusion protein was quantified by assessing the particle intensities after staining with anti-human antibody (FIG. 5). […] (FIGS. 4 and 5).

[4] = tested on: HCMV strains AD169, Towne, Merlin, VR1814, VHL/E, TB40/F; experiment: Inhibition of HFF infection by other HCMV strains; format: cell-based, Human cytomegalovirus; settings: 250 ng/ml, HFFs
Experimental: Infection efficiencies were determined by immunofluorescence staining for viral proteins. For fixation and permeabilization the cells were incubated with 80% acetone for 5 min. For HCMV infected cells the immediate early proteins pUL122/123 were detected with a mouse monoclonal (clone E13, Argene) and visualized using a Cy3 conjugated goat anti-mouse secondary antibody (Jackson Immuno Research). HSV infected cultures were stained 6 h post infection for ICP0 using a mouse monoclonal (clone 11060, Santa Cruz) and goat anti-mouse AF488 (life technologies). DAPI was used to locate nuclei. Infection rates were determined by counting the number of cell nuclei positive for the respective viral protein, as well as the total number of nuclei per image. For each condition three images were evaluated.
Next, it was tested whether soluble PDGFR-alpha-Fc would inhibit not only strain TB40/E but also other strains of HCMV. […] After an overnight incubation, the fraction of infected cells was determined by immunofluorescence staining of viral immediate early antigen. […]

PDGFR-alpha-Fc: recombinant Fc-fusion protein of the PDGFR-alpha extracellular domain, obtained from R&D (6765-PR-050)
infectivity of already adsorbed viruses (reduced to) ([1]; 200 ng/ml added post adsorption, HFFs): 50% | post adsorption inhibition after addition of PEG ([1]; 200 ng/ml, 50% PEG 30 sec): completely rescued | infectivity of the UL74stop virus with increasing doses [2]: did not significantly change | EC50 of binding to HCMV particles ([3]; particle intensities after anti-human antibody staining): 0.108 µg/mL | binding of Fc-fusion protein to virus particles (anti-human antibody staining) ([3]; particles pre-incubated with Fc-fusion protein, attached to cells on ice): binds to the virus | reduction of infection, strains other than VR1814 [4]: complete
